Source: patent US20180228801A1, “Method for Enhancing Learning Ability and Memory of Patients with Alzheimer's Disease using Mocetinostat” (National Taiwan Normal University, priority 2017, published 2018)

Tests used:
Format in all cases: in vivo, mice (C57BL/6J)
[1] = test system: mice with oligomeric Aβ25-35 injected into bilateral hippocampal CA1; experiment: Elevated Plus Maze Test; conditions: Aβ25-35 mice, high dose 0.5 mg/kg i.p. once a day
Experimental: (§1) Further, in some embodiments of the present invention, C57BL/6J strain male mice (12 week old) are used as a subject in need. After mice are allowed to adapt to the environment for 6 days, mice are anesthetized with Avertin (0.4 g/kg; purchased from Sigma). The mice are fixed on a stereotactic apparatus for operation, followed by injecting oligomeric Aβ25-35 (10 nM, 3 μL) into bilateral hippocampal CA1 (AP: […] relative to the bregma; ML: ±[…] relative to the midline; DV: […] relative to the skull) on day 7. MGCD0103 and equal volume of vehicle (saline) are intraperitoneal (i.p.) injected once a day from day 8, the day after said operation, for 29 days. On day 24, the Open Field Test is performed; on day 26, the EPM is performed; on day 28, the Y-maze is performed; on days 30 to 36, MWM is performed; and on day 37, mice are euthanized for pathological analysis.
By means of observing the mice exploring an unfamiliar environment, and the contradictory and conflicting behavior caused by fear of the animal of highly hanging arms of the maze, the anxiety level of the animal can be determined. […] The total time spent at the open arms for each mouse was recorded by a video tracking system (EthoVision-XT, Noldus).

[2] = test system: mice with oligomeric Aβ25-35 injected into bilateral hippocampal CA1; experiment: Y-Maze Activity Test; conditions: Aβ25-35 mice, high dose 0.5 mg/kg i.p. once a day
Experimental: as §1, with “On day 24, the Open Field Test is performed; on day 26, the EPM is performed; on day 28, the Y-maze is performed; on days 30 to 36, MWM is performed; and on day 37, mice are euthanized for pathological analysis.” left out
Y-Maze Activity Test is a test that takes advantage of the characteristic that mice tend to explore an unfamiliar environment, so that the short-term spatial memory of mice can be measured by means of a Y-maze module arranged with three arms (35 cm×5 cm×20 cm) formed of white acrylic. The mice are placed in the middle of the three arms of the Y-Maze, and the mice are allowed to freely and spontaneously explore for 8 minutes, wherein one count is recorded when four limbs of the mice completely enter any one of the three arms. […]

[3] = test system: acetylated tissue proteins H3; experiment: Western blot, acetylated H3; conditions: chronic i.p. treatment, hippocampus
Experimental: as §1

[4] = test system: acetylated alpha-tubulin; experiment: Western blot, acetylated alpha-tubulin; conditions: chronic i.p. treatment, hippocampus
Experimental: as §1

[5] = test system: inactivated GSK3β (pS9); experiment: Western blot, inactivated GSK3β (pS9); conditions: Aβ25-35 mice, hippocampus
Experimental: as §1

[6] = test system: pERK; experiment: Western blot, pERK; conditions: hippocampus
Experimental: as §1

[7] = test system: BACE1 (Aβ forming enzyme); experiment: Western blot, BACE1; conditions: Aβ25-35 mice, hippocampus
Experimental: as §1

[8] = test system: activated microglia; experiment: Immunohistochemical staining, activated microglia in hippocampus; conditions: Aβ25-35 mice
Experimental: as §1
(§2) The inventor collects the brain tissue by perfusion followed by fixing and dehydrating, then, 30 μm frozen sections are obtained by a freezing microtome (CMS3050S, Leica). […] After that, avidin-biotin complex (ABC) is detected 1 hour after staining. […] After all sections have been stained, they are then fixed on a slide, dried, dehydrated, mounted, and photographed for quantity (performed by Image Pro Plus, Meida Cyberetics, USA).

[9] = test system: cholinergic neurons in medial septum/diagonal band (MS/DB); experiment: Immunohistochemical staining, cholinergic neurons (ChAT); conditions: saline-injected mice; Mean±SEM
Experimental: as §1
as §2, with “USA). […]” for “USA).”

[10] = test system: serotonergic neurons in Raphe nucleus; experiment: Immunohistochemical staining, serotonergic neurons (5HT); conditions: saline-injected mice; Mean±SEM
Experimental: as §1
as §2, with “USA). […]” for “USA).”

[11] = test system: adrenergic neurons in locus coeruleus (LC); experiment: Immunohistochemical staining, adrenergic neurons (TH); conditions: saline-injected mice; Mean±SEM
Experimental: as §1
as §2, with “USA). […]” for “USA).”

Nc1ccccc1NC(=O)c1ccc(CNc2nccc(-c3cccnc3)n2)cc1 [MGCD0103, N-(2-Aminophenyl)-4-[[(4-pyridin-3-ylpyrimidin-2-yl)amino]methyl] benzamide]
time spent in the open arm [1]: significantly increased | spontaneous alternation rate (short-term memory) [2]: significantly increased | acetylation level of tissue proteins H3 [3]: significantly improve | acetylation level of alpha-tubulin [4]: significantly improve | expression of inactivated GSK3β (pS9) [5]: considerably increased | expression of pERK [6]: do not show difference | expression of BACE1 [7]: does not show a significant difference | numbers of activated microglia [8]: significantly decrease | ChAT, numbers of cholinergic neurons [9]: 52.75 ± 8.27 | 5HT, numbers of serotonergic neurons [10]: 21.43 ± 1.32 | TH, numbers of adrenergic neurons [11]: 44.58 ± 2.05
